The test system of data set [1] is HEK-293 cells expressing ABCG2. In words: Chemosensitization to mitoxantrone, cell growth test (MTT). The class given is cell-based, human. Particulars: 5 μM compound, 72 hours, compared with cells not expressing ABCG2. On the procedure: (§1) The cells are seeded (10 000 cells/well) in 96-well plates and incubated for 24 hours at 37° C. under 5% CO2. Varied concentrations of mitoxantrone (from 0 to 20 μM in a constant final volume of 100 μL) are then added with an equal volume of each of the test compounds. The cells are then left to divide for 72 hours. The cytotoxicity is evaluated colorimetrically with 3-(4,5-dimethylthiazol-2-yl)-2,5-diphenyltetrazolium bromide (MTT).
Increasing concentrations of mitoxantrone (MTX) are applied to HEK-293 cells expressing or not expressing ABCG2 and subjected or not subjected to a treatment with 5 μM of compound (IA.2), and whose residual vitality is evaluated after 72 hours of treatment by an MIT test. The results are illustrated in FIG. 3, in which the cells expressing ABCG2 are represented by circles, and those not expressing it by squares; those that are treated with 5 μM of (IA.2), i.e. five times its IC50, appear as empty symbols, whereas those that are not treated with (IA.2) appear as solid symbols. […] Compound (IA.2) thus appears to be a very efficient chemosensitizer.
Increasing concentrations of mitoxantrone (MTX) are applied to HEK-293 cells expressing or not expressing ABCG2 and subjected or not subjected to a treatment with 5 μM of compound (IA.1), and whose residual vitality is evaluated after 72 hours of treatment by an MTT test. The results are illustrated in FIG. 5, in which the cells expressing ABCG2 are represented by circles, and those not expressing it by squares; those that are treated with 5 μM of (IA.1), i.e. 2.5 times its IC50, appear as empty symbols, whereas those that are not treated with (IA.1) appear as solid symbols. […]
Increasing concentrations of mitoxantrone (MTX) are applied to HEK-293 cells expressing or not expressing ABCG2 and subjected or not subjected to a treatment with 5 μM of compound (IB.1), and whose residual vitality is evaluated after 72 hours of treatment by an MTT test. […]

A further data set concerns HEK-293 cells. In words: Cytotoxicity on cell growth, MTT test. The data set is classed as cell-based, human. Particulars: 72 hours; for harmlessness / toxicity on HEK-293 cells: cells expressing or not ABCG2. As for the experimental part: as §1
Increasing concentrations of compound (IA.2) are applied to HEK-293 cells expressing or not expressing ABCG2, and whose residual vitality is evaluated after 72 hours of treatment by an MTT test. The results are illustrated in FIG. 4, in which the cells expressing ABCG2 are represented by empty circles, and those not expressing it by solid circles. […] This absence of toxicity is observed even at a very high concentration such as 40 μM, which corresponds to 40 times the IC50 value.
Increasing concentrations of compound (IA.1) are applied to HEK-293 cells expressing or not expressing ABCG2, and whose residual vitality is evaluated after 72 hours of treatment by an MTT test. The results are illustrated in FIG. 6, in which the cells expressing ABCG2 are represented by empty circles, and those not expressing it by solid circles.
Increasing concentrations of compound (IB.1) are applied to HEK-293 cells expressing or not expressing ABCG2, and whose residual vitality is evaluated after 72 hours of treatment by an MTT test. The results are illustrated in FIG. 8, in which the cells expressing ABCG2 are represented by empty circles and those not expressing it by solid circles.
Increasing concentrations of compound (IB.11) are applied to HEK-293 cells expressing or not expressing ABCG2, and whose residual vitality is evaluated after 72 hours of treatment by an MTT test. The results are illustrated in FIG. 10, in which the cells expressing ABCG2 are represented by empty circles, and those not expressing it by solid circles.

Entries after “also recorded” stand apart in the source; their conditions may differ.

Consider `CC(C)(C)OC(=O)NN(C(=O)N[C@@H](CCCCNC(=O)OCc1ccccc1)C(=O)OC(C)(C)C)c1ccccc1C(=O)OCc1ccccc1` [IA.1, tert-Butyl ester of (2S)-6-(benzyloxycarbonylamino)-2-[1-(2′-(benzyloxycarbonyl)phenyl)-2-(tert-butoxycarbonyl)hydrazino-carbonylamino]hexanoic acid], for which the “chemosensitization: restoration of mitoxantrone sensitivity” value (“chemosensitization: restoration” for short) in data set [1] is “chemosensitization; also recorded: restores virtually full mitoxantrone sensitivity”. The “harmlessness / toxicity on HEK-293 cells” value in the data set on HEK-293 cells was “harmlessness”. The “cytotoxic effect on HEK-293 cells” value in the data set with HEK-293 cells (concentration range tested, more than 10 times its IC50, expressing or not ABCG2) is recorded as “no cytotoxic effect”.

In the case of `CC(C)(C)OC(=O)NN(C(=O)N[C@@H](CCCCNC(=O)OCc1ccccc1)C(=O)OC(C)(C)C)c1cccc(C(=O)OCc2ccccc2)c1` [IA.2, tert-Butyl ester of (2S)-6-(benzyloxycarbonylamino)-2-[1-(3′-(benzyloxycarbonyl)phenyl)-2-(tert-butoxycarbonyl)hydrazino-carbonylamino]hexanoic acid], the “chemosensitization: restoration” value in data set [1] is “chemosensitization; also recorded: restores mitoxantrone sensitivity equal to that observed in the control cells”. The “harmlessness / toxicity on HEK-293 cells” value in the data set with HEK-293 cells is “harmlessness”. Also, the “cytotoxicity on HEK-293 cells” value with HEK-293 cells (up to 40 μM (40 times the IC50), expressing or not ABCG2) is recorded as “absolutely not cytotoxic”.

Take `CC(C)(C)OC(=O)N[C@H](CNN(CCCCCCNC(=O)OCc1ccccc1)C(=O)OC(C)(C)C)CC(=O)OCc1ccccc1` [IB.1, Benzyl ester of (3S)-4-[2-(6-benzyloxycarbonylaminohexyl)-2-tert-butoxycarbonylhydrazino]-3-tert-butoxycarbonylaminobutyric acid]: the “chemosensitization: restoration” value in data set [1] is recorded as “chemosensitization; also recorded: virtually full restoration of mitoxantrone sensitivity”. The “cytotoxicity on HEK-293 cells” value in the data set with HEK-293 cells (at 40 times the IC50) was “relative cytotoxicity”. Also, the “harmlessness / toxicity on HEK-293 cells” value in the data set on HEK-293 cells was “harmlessness”. Also, the “cytotoxic effect on HEK-293 cells” value with HEK-293 cells (up to 20 times its IC50, expressing or not ABCG2) was “no cytotoxic effect”.

Take `CC(C)(C)OC(=O)N[C@H](CNN(CCCCCCNC(=O)OCc1ccccc1)C(=O)OCc1ccccc1)CC(=O)OCc1ccccc1` [IB.11, Benzyl ester of (3S)-4-[2-benzyloxycarbonyl-2-(6-benzyloxycarbonylaminohexyl)hydrazino]-3-tert-butoxycarbonyl-aminobutyric acid]: the “harmlessness / toxicity on HEK-293 cells” value with HEK-293 cells is “harmlessness”. Besides, the “cytotoxic effect on HEK-293 cells” value in the data set with HEK-293 cells (concentration range tested, more than 80 times its IC50, expressing or not ABCG2) is on record as “no cytotoxic effect”.

The values above are taken from US20120010161A1, “NOVEL AZAPEPTIDE OR AZAPEPTIDOMIMETIC COMPOUNDS INHIBITING BCRP AND/OR P-GP” (CENTRE NATIONAL DE LA RECHERCHE SCIENTIFIQUE, priority 2009, published 2012).
